In patent publication US20230085307A1, “PYRIDAZINONE COMPOUND AND HERBICIDE” (NISSAN CHEMICAL CORPORATION, priority 2019, published 2023):

Experiments:
redroot pigweed = assay: Test Example 4: herbicidal effect by soil treatment (Table 19, symbol N); format: in vivo, redroot pigweed (Amaranthus retroflexus); conditions: for N: redroot pigweed, herbicidal effect rating: amount of applied herbicide 320 g/ha
Summary of the method: (§1)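 Scoring uses the grading scale of an earlier test, three weeks post-application. Treatment consists of spraying a diluted emulsion formulation across the surface of sterilized diluvial soil in which seeds are buried near 1.5 cm deep; boxes are kept in a greenhouse between 25° C. and 30° C.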

barnyard grass [1] = assay: Test Example 3: herbicidal effect by foliage application, Wagner pot (Table 18, symbol H); format: in vivo, barnyard grass (Echinochloa crus-galli); conditions: for herbicidal effect on H (barnyard grass), rating 0-5: 320 g/ha; for herbicidal effect on H: barnyard grass: amount of applied herbicide 320 g/ha
Summary of the method: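 Plants were sown in alluvial soil held under 0.1–0.5 cm standing water and grown 14 days in a greenhouse at 25–30 °C. An emulsifiable formulation, water-diluted to the set dose, was then sprayed onto the foliage, and effects were scored three weeks later using previously defined criteria.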

blackgrass [2] = assay: Test Example 5: herbicidal effect by foliage application, plastic box (Table 20, symbol J); format: in vivo, blackgrass (Alopecurus myosuroides); conditions: foliage application, 320 g/ha, evaluated three weeks after application
Summary of the method: (§2)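 Post-emergence foliar test in sterilized diluvial soil. Compound applied as water-diluted emulsion at a predetermined rate to 14-day-old plants; evaluation at three weeks.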

windgrass = assay: Test Example 5: herbicidal effect by foliage application, plastic box (Table 20, symbol L); format: in vivo, windgrass (Apera spica-venti); conditions: foliage application, 320 g/ha, evaluated three weeks after application
Summary of the method: as §2

oval-leafed pondweed [3] = assay: Test Example 1: herbicidal activity, application before weed generation under submerged conditions (Table 16, symbol C); format: in vivo, oval-leafed pondweed (Monochoria vaginalis); conditions: 320 g/ha applied herbicide
Summary of the method: (§3)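 Submerged Wagner pots (alluvial soil, 4 cm water) sown with weed seeds and planted with 2.5-leaf rice seedlings; emulsifiable concentrate diluted in water applied to water surface on sowing day. Held in greenhouse at 25-30 °C; injury scored 0-5 by herbicidal rate after three weeks.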

Japanese bulrush [4] = assay: Test Example 2: herbicidal activity, application during weed generation under submerged conditions (Table 17, symbol B); format: in vivo, Japanese bulrush (Schoenoplectus juncoides); conditions: AAH 320 g/ha; application during weed generation, submerged conditions
Summary of the method: (§4)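 Effect on each weed is rated three weeks post-treatment, using the same scoring criteria as the preceding test. Plants grow from mixed-sown seed in flooded alluvial soil (4 cm water) at 25° C. to 30° C., and are treated at one to two leaves with diluted emulsion dropped onto the water.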

persian speedwell [5] = assay: Test Example 5: herbicidal effect by foliage application, plastic box (Table 20, symbol R); format: in vivo, Persian speedwell (Veronica persica); conditions: foliage application, 320 g/ha, evaluated three weeks after application
Summary of the method: as §2

blackgrass [6] = assay: Test Example 4: herbicidal effect by soil treatment (Table 19, symbol J); format: in vivo, blackgrass (Alopecurus myosuroides); conditions: for J: blackgrass, herbicidal effect rating: amount of applied herbicide 320 g/ha
Summary of the method: as §1

oval-leafed pondweed [7] = assay: Test Example 2: herbicidal activity, application during weed generation under submerged conditions (Table 17, symbol C); format: in vivo, oval-leafed pondweed (Monochoria vaginalis); conditions: AAH 320 g/ha; application during weed generation, submerged conditions
Summary of the method: as §4

green foxtail [8] = assay: Test Example 4: herbicidal effect by soil treatment (Table 19, symbol G); format: in vivo, green foxtail (Setaria viridis); conditions: for G: green foxtail, herbicidal effect rating: amount of applied herbicide 320 g/ha
Summary of the method: as §1

velvetleaf [9] = assay: Test Example 4: herbicidal effect by soil treatment (Table 19, symbol M); format: in vivo, velvetleaf (Abutilon theophrasti); conditions: for M: velvetleaf, herbicidal effect rating: amount of applied herbicide 320 g/ha
Summary of the method: as §1

southern crabgrass = assay: Test Example 5: herbicidal effect by foliage application, plastic box (Table 20, symbol F); format: in vivo, southern crabgrass (Digitaria ciliaris); conditions: foliage application, 320 g/ha, evaluated three weeks after application
Summary of the method: as §2

persian speedwell [10] = assay: Test Example 4: herbicidal effect by soil treatment (Table 19, symbol R); format: in vivo, Persian speedwell (Veronica persica); conditions: for R: persian speedwell, herbicidal effect rating: amount of applied herbicide 320 g/ha
Summary of the method: as §1

barnyard grass [11] = assay: Test Example 4: herbicidal effect by soil treatment (Table 19, symbol H); format: in vivo, barnyard grass (Echinochloa crus-galli); conditions: for H: barnyard grass, herbicidal effect rating: amount of applied herbicide 320 g/ha
Summary of the method: as §1

velvetleaf [12] = assay: Test Example 5: herbicidal effect by foliage application, plastic box (Table 20, symbol M); format: in vivo, velvetleaf (Abutilon theophrasti); conditions: foliage application, 320 g/ha, evaluated three weeks after application
Summary of the method: as §2

Japanese bulrush [13] = assay: Test Example 1: herbicidal activity, application before weed generation under submerged conditions (Table 16, symbol B); format: in vivo, Japanese bulrush (Schoenoplectus juncoides); conditions: 320 g/ha applied herbicide
Summary of the method: as §3

green foxtail [14] = assay: Test Example 5: herbicidal effect by foliage application, plastic box (Table 20, symbol G); format: in vivo, green foxtail (Setaria viridis); conditions: foliage application, 320 g/ha, evaluated three weeks after application
Summary of the method: as §2

SMILES | herbicidal effect on H (barnyard grass), rating 0-5 (barnyard grass [1]) | herbicidal effect on J: blackgrass (blackgrass [2]) | herbicidal effect on L: windgrass (windgrass) | Herbicidal effect on C: oval-leafed pondweed (grade 0-5) (oval-leafed pondweed [3]) | herbicidal effect rating, B: Japanese bulrush (Japanese bulrush [4]) | herbicidal effect on R: persian speedwell (persian speedwell [5]) | herbicidal effect rating, C: oval-leafed pondweed (oval-leafed pondweed [7]) | herbicidal effect on F: southern crabgrass (southern crabgrass) | herbicidal effect on M: velvetleaf (velvetleaf [12]) | Herbicidal effect on B: Japanese bulrush (grade 0-5) (Japanese bulrush [13]) | herbicidal effect on G: green foxtail (green foxtail [14]) | N: redroot pigweed, herbicidal effect rating (redroot pigweed) | J: blackgrass, herbicidal effect rating (blackgrass [6]) | G: green foxtail, herbicidal effect rating (green foxtail [8]) | M: velvetleaf, herbicidal effect rating (velvetleaf [9]) | R: persian speedwell, herbicidal effect rating (persian speedwell [10]) | H: barnyard grass, herbicidal effect rating (barnyard grass [11]) | herbicidal effect on H: barnyard grass (barnyard grass [1]) | also measured
CCCC(=O)Oc1c(C)nn(C)c(=O)c1-c1c(-c2ccc3c(c2)OCO3)sc2ccc(F)cc12 [2-091] | 3 (Herbicidal rate of 40% or more and less than 70%) | 3 (Herbicidal rate of 40% or more and less than 70%) | 0 (Herbicidal rate of 5% or less (almost no effect)) | 5 (Herbicidal rate of 90% or more (almost completely withered)) | 3 (Herbicidal rate of 40% or more and less than 70%) | 5 (Herbicidal rate of 90% or more (almost completely withered)) | 4 (Herbicidal rate of 70% or more and less than 90%) | 2 (Herbicidal rate of 20% or more and less than 40%) | 5 (Herbicidal rate of 90% or more (almost completely withered)) | 4 (Herbicidal rate of 70% or more and less than 90%) | 1 (Herbicidal rate of 5% or more and less than 20%) | – | – | – | – | – | – | – | herbicidal effect rating, N: redroot pigweed (redroot pigweed; 320 g/ha): 5 (Herbicidal rate of 90% or more (almost completely withered)); herbicidal effect rating, J: blackgrass (blackgrass [6]; 320 g/ha): 0 (Herbicidal rate of 5% or less (almost no effect)); herbicidal effect rating, G: green foxtail (green foxtail [8]; 320 g/ha): 3 (Herbicidal rate of 40% or more and less than 70%); herbicidal effect rating, M: velvetleaf (velvetleaf [9]; 320 g/ha): 5 (Herbicidal rate of 90% or more (almost completely withered)); herbicidal effect rating, R: persian speedwell (persian speedwell [10]; 320 g/ha): 4 (Herbicidal rate of 70% or more and less than 90%); herbicidal effect rating, H: barnyard grass (barnyard grass [11]; 320 g/ha): 2 (Herbicidal rate of 20% or more and less than 40%)
CCCC(=O)Oc1c(C)nn(C)c(=O)c1-c1c(-c2ccc(Cl)cc2)sc2ccc(Cl)cc12 [2-100] | 5 (Herbicidal rate of 90% or more (almost completely withered)) | 4 (Herbicidal rate of 70% or more and less than 90%) | 5 (Herbicidal rate of 90% or more (almost completely withered)) | 2 (Herbicidal rate of 20% or more and less than 40%) | 0 (Herbicidal rate of 5% or less (almost no effect)) | 5 (Herbicidal rate of 90% or more (almost completely withered)) | 0 (Herbicidal rate of 5% or less (almost no effect)) | 4 (Herbicidal rate of 70% or more and less than 90%) | 5 (Herbicidal rate of 90% or more (almost completely withered)) | 3 (Herbicidal rate of 40% or more and less than 70%) | 4 (Herbicidal rate of 70% or more and less than 90%) | 4 (Herbicidal rate of 70% or more and less than 90%) | 0 (Herbicidal rate of 5% or less (almost no effect)) | 0 (Herbicidal rate of 5% or less (almost no effect)) | 0 (Herbicidal rate of 5% or less (almost no effect)) | 1 (Herbicidal rate of 5% or more and less than 20%) | 0 (Herbicidal rate of 5% or less (almost no effect)) | – | –
COc1ccccc1-c1sc2ccc(Cl)cc2c1-c1c(O)c(C)nn(C)c1=O [2-101] | 4 (Herbicidal rate of 70% or more and less than 90%) | 5 (Herbicidal rate of 90% or more (almost completely withered)) | 4 (Herbicidal rate of 70% or more and less than 90%) | 3 (Herbicidal rate of 40% or more and less than 70%) | 3 (Herbicidal rate of 40% or more and less than 70%) | 5 (Herbicidal rate of 90% or more (almost completely withered)) | 5 (Herbicidal rate of 90% or more (almost completely withered)) | 2 (Herbicidal rate of 20% or more and less than 40%) | 5 (Herbicidal rate of 90% or more (almost completely withered)) | 3 (Herbicidal rate of 40% or more and less than 70%) | 3 (Herbicidal rate of 40% or more and less than 70%) | 5 (Herbicidal rate of 90% or more (almost completely withered)) | 1 (Herbicidal rate of 5% or more and less than 20%) | 2 (Herbicidal rate of 20% or more and less than 40%) | 3 (Herbicidal rate of 40% or more and less than 70%) | 4 (Herbicidal rate of 70% or more and less than 90%) | 3 (Herbicidal rate of 40% or more and less than 70%) | – | –
Cc1nn(C)c(=O)c(-c2c(-c3ccc(C#N)cc3)sc3ccc(Cl)cc23)c1O [2-112] | – | 5 (Herbicidal rate of 90% or more (almost completely withered)) | 5 (Herbicidal rate of 90% or more (almost completely withered)) | 0 (Herbicidal rate of 5% or less (almost no effect)) | 0 (Herbicidal rate of 5% or less (almost no effect)) | 5 (Herbicidal rate of 90% or more (almost completely withered)) | 0 (Herbicidal rate of 5% or less (almost no effect)) | 4 (Herbicidal rate of 70% or more and less than 90%) | 4 (Herbicidal rate of 70% or more and less than 90%) | 2 (Herbicidal rate of 20% or more and less than 40%) | 4 (Herbicidal rate of 70% or more and less than 90%) | 5 (Herbicidal rate of 90% or more (almost completely withered)) | 3 (Herbicidal rate of 40% or more and less than 70%) | 0 (Herbicidal rate of 5% or less (almost no effect)) | 4 (Herbicidal rate of 70% or more and less than 90%) | 5 (Herbicidal rate of 90% or more (almost completely withered)) | 0 (Herbicidal rate of 5% or less (almost no effect)) | 5 (Herbicidal rate of 90% or more (almost completely withered)) | –
CCCC(=O)Oc1c(C)nn(C)c(=O)c1-c1c(-c2cccc(F)c2)sc2ccc(F)cc12 [2-202] | – | – | – | 0 (Herbicidal rate of 5% or less (almost no effect)) | 3 (Herbicidal rate of 40% or more and less than 70%) | – | 4 (Herbicidal rate of 70% or more and less than 90%) | – | – | 0 (Herbicidal rate of 5% or less (almost no effect)) | – | 5 (Herbicidal rate of 90% or more (almost completely withered)) | 0 (Herbicidal rate of 5% or less (almost no effect)) | 3 (Herbicidal rate of 40% or more and less than 70%) | 0 (Herbicidal rate of 5% or less (almost no effect)) | 4 (Herbicidal rate of 70% or more and less than 90%) | 4 (Herbicidal rate of 70% or more and less than 90%) | 5 (Herbicidal rate of 90% or more (almost completely withered)) | herbicidal effect on J: blackgrass (criteria 0-5) (blackgrass [2]): 1 (Herbicidal rate of 5% or more and less than 20%); herbicidal effect on L: windgrass (criteria 0-5) (windgrass): 2 (Herbicidal rate of 20% or more and less than 40%); herbicidal effect on R: persian speedwell (criteria 0-5) (persian speedwell [5]): 4 (Herbicidal rate of 70% or more and less than 90%); herbicidal effect on F: southern crabgrass (criteria 0-5) (southern crabgrass): 3 (Herbicidal rate of 40% or more and less than 70%); herbicidal effect on M: velvetleaf (criteria 0-5) (velvetleaf [12]): 5 (Herbicidal rate of 90% or more (almost completely withered)); herbicidal effect on G: green foxtail (criteria 0-5) (green foxtail [14]): 4 (Herbicidal rate of 70% or more and less than 90%)
